According to patent publication US3995061A, “Pharmaceutical composition and method of using the same” (Chugai Seiyaku Kabushiki Kaisha, priority 1974, dated 1976):

Assays:
Acute toxicity, mouse = settings: in vivo
From the text: (§1) Acute toxicity of the ascochlorin derivatives was observed by the use of Wister-Imamichi strain male rats weighing 230 ± 30 g and ddY strain male and female mice (5 weeks old) weighing 20 ±3 g which were divided into groups of 10 members each. Japanese native male rabbits weighing 2 kg ± 300 g which were divided into groups of five members each were also used. The test animals were orally or intraperitoneally administered with a different ascochlorin derivative as a suspension in 5% gum arabic aqueous solution, and the toxicity was compared with that of control in which ascochlorin was used.

blood platelet = experiment: Aggregation inhibition activity of blood platelet (ADP-induced, platelet rich plasma of orally dosed rats); type: in vivo, Wister-Imamich strain male rats; settings: rat, 20 mg/kg oral, 6 hours; adenosine-5'-diphosphate 10^-5 M in platelet rich plasma
Procedure: In this Example Wister-Imamich strain male rats weighing 230 ± 30 g which had been bred with the use of a commercial chow, CLEA CE-2 were used.
The rats were divided into groups of five members each, and orally administered with a different ascochlorin derivative as a suspension in 2% gum arabic aqueous solution in a dose of 20 mg/kg.body weight. Six hours after the administration, the blood of each rat was sampled from the heart and after the addition of citric acid, the blood sample was centrifuged at 1,500 r.p.m. for 10 minutes to obtain platelet rich plasma. The anti-aggregation effect when the concentration of adenosine-5'-diphosphatein the platelet rich plasma is ultimately 10^^-5 M is shown in Table II.
As positive controls, ascochlorin, ethyl-α-(p-chlorophenoxy) isobutylate and acetyl salicyclic acid were used. The aggregation inhibition ratio was evaluated in percent by comparing the increase of transmission rate caused by the addition of adenosin-5'-diphosphate to platelet rich plasma of the control group (no medication) with that caused on the groups administered with an ascochlorin derivative which is calculated for 100.

Cholesterol in serum = experiment: Serum cholesterol lowering activity in rats on high-fat feed, single oral dose; type: in vivo, Wister-Imamich strain male rats; settings: rat, 75 mg/kg oral, 6 hours after administration
From the text: The cholesterol lowering activity of the ascochlorin derivatives of this invention was observed by the use of Wister-Imamich strain male rats weighing 230 ± 30 g which had been bred with the use of high-fat feed comprising 1000 g of powdery chow CLEA CE-2 (sold by NIHON CLEA KABUSHIKI KAISHA) admixed with 10 g of cholesterol, 95 g of hydrogenated coconut oil, 2 g of cholic acid, 150 g of milk casein and 671 g of sucrose.
The rats were divided into groups of five members each, and orally administered with a different ascochlorin derivative as a suspension in gum arabic aqueous solution in a dose of 75 mg/kg.body weight. The rats were kept from eating food, and 6 hours after the administration, the blood of each rat was sampled from its heart. The total amount of cholesterol in serum was determined by a modified Zurkowski method (Clinical Chemistry, 10, 451, 1964) with the use of a colorimeter for blood analysis (sold by KYOTO DAIICHI KAGAKU).

Acute toxicity, rat = settings: in vivo, male
From the text: as §1

Acute toxicity, rabbit = experiment: Acute toxicity, rabbit; set-up: species or system Japanese native male rabbits; settings: in vivo, male, oral
From the text: as §1

Serum Lipid = experiment: Hypolipidemic activity: change in level of serum lipid, 30 days, high-fat feed; type: in vivo, Wister strain rats; settings: rat; for Serum Cholesterol / Serum Free fatty acid / Serum Phospholipid / Serum Triglyceride / Serum β-Lipoprotein: average ± standard error
arteriosclerosis = experiment: Treatment of arteriosclerosis in human beings, oral administration; type: in vivo; settings: 50 mg dose after every meal, study not completed
From the text: In order to treat arteriosclerosis by the use of the composition prepared according to the present invention, mammals and poultry are orally administered with the pharmaceutical composition prepared according to the present invention once or more a day. Especially, for human beings, it is preferable to administer the composition three times per day, after every meal. For animals other than human beings, the composition may be administered alone or by mixing it with feed. As stated above, the dose of the composition depends on the kind of animals to which it is to be administered and on the form of the composition. However, the dose ranges generally 0.05-500, preferably 0.5-50 mg/kg.body weight per day based on the ascochlorin derivative.

Lipid in liver and aorta = experiment: Hypolipidemic activity: change of lipid level in organs and aorta abdominalis, 30 days, high-fat feed; type: in vivo, Wister strain rats; set-up: Cholesterol in Tunica intima of aorta abdominalis: unit not given here; settings: rat; for Cholesterol in Liver / Cholesterol in Tunica intima of aorta abdominalis / Phospholipid in Liver / Triglyceride in Liver: average ± standard error
Procedure: Wister strain rats weighing 150 ± 20 g were divided into groups of 10 members each and bred with high-fat feed, the same as that used in Example 1. The rats were orally administered ascochlorin, 4-O-methylascochlorin or ethyl-α-(p-chlorophenoxy) isobutylate in a predetermined dose every morning for 30 days. Six hours after the last administration, liver and aorta of each rat were taken out and lipid level in the organs of each of the rats were determined. Lipid present in the liver and aorta was extracted with methanol-chloroform (1:1) by allowing it to stand overnight and the extract was assayed as to lipid level.

## CCOc1c(Cl)c(C)c(C=O)c(O)c1C/C=C(C)/C=C/C1(C)C(C)CCC(=O)C1C (stereo not shown) [4-O-ethylascochlorin]
Acute toxicity, mouse; ip, male
  LD50: 5600 mg/kg
Blood platelet
  Aggregation Inhibition Ratio: 55.3%
Cholesterol in serum
  Cholesterol in serum: 82.2 mg/dL
Acute toxicity, rat; ip
  LD50: 5100 mg/kg

## CC(/C=C/C1(C)C(C)CCC(=O)C1C)=C\Cc1c(O)c(C=O)c(C)c(Cl)c1OCC(C)C (stereo not shown) [4-O-isobutylascochlorin]
Blood platelet
  Aggregation Inhibition Ratio: 48.8%
Cholesterol in serum
  Cholesterol in serum: 88.5 mg/dL

## CC(/C=C/C1(C)C(C)CCC(=O)C1C)=C\Cc1c(O)c(C=O)c(C)c(Cl)c1OC(C)C (stereo not shown) [4-O-isopropylascochlorin]
Blood platelet
  Aggregation Inhibition Ratio: 57.2%
Cholesterol in serum
  Cholesterol in serum: 85.6 mg/dL

## COc1c(Cl)c(C)c(C=O)c(O)c1C/C=C(C)/C=C/C1(C)C(C)CCC(=O)C1C (stereo not shown) [4-O-methylascochlorin]
Acute toxicity, mouse; ip, female
  LD50: 5500 mg/kg
Acute toxicity, mouse; ip, male
  LD50: 5000 mg/kg
Acute toxicity, mouse; po, female
  LD50: > 7300 mg/kg
Acute toxicity, mouse; po, male
  LD50: > 7300 mg/kg
Acute toxicity, rabbit
  LD50: > 2000 mg/kg
Serum Lipid; 2.25 mg/kg oral
  Serum Cholesterol, increasing or reducing ratio based on the control: -4.2
  Serum Free fatty acid, increasing or reducing ratio based on the control: -2.4
  Serum Phospholipid, increasing or reducing ratio based on the control: -12.2
  Serum Triglyceride, increasing or reducing ratio based on the control: -6.8
  Serum β-Lipoprotein, increasing or reducing ratio based on the control: +7.3
  Serum Cholesterol: 102.4 ± 13.8 mg/dL
  Serum Free fatty acid: 49.1±8.2 μ eq./dl
  Serum Phospholipid: 119.7 ± 12.5 mg/dL
  Serum Triglyceride: 74.5 ± 9.8 mg/dL
  Serum β-Lipoprotein: 819 ± 109 mg/dL
Serum Lipid; 9 mg/kg or more, oral
  levels of all types of lipids: extremely lowered
Serum Lipid; 9.0 mg/kg oral
  Serum Cholesterol, increasing or reducing ratio based on the control: -18.6
  Serum Free fatty acid, increasing or reducing ratio based on the control: -10.4
  Serum Phospholipid, increasing or reducing ratio based on the control: -13.2
  Serum Triglyceride, increasing or reducing ratio based on the control: -19.0
  Serum β-Lipoprotein, increasing or reducing ratio based on the control: -22.3
  Serum Cholesterol: 87.0 ± 4.9 mg/dL
  Serum Free fatty acid: 44.8±3.5 μ eq./dl
  Serum Phospholipid: 118.4 ± 5.8 mg/dL
  Serum Triglyceride: 64.8 ± 5.2 mg/dL
  Serum β-Lipoprotein: 593 ± 85 mg/dL
Serum Lipid; 22.5 mg/kg oral
  Serum Cholesterol, increasing or reducing ratio based on the control: -16.9
  Serum Free fatty acid, increasing or reducing ratio based on the control: -16.3
  Serum Phospholipid, increasing or reducing ratio based on the control: -13.5
  Serum Triglyceride, increasing or reducing ratio based on the control: -20.5
  Serum β-Lipoprotein, increasing or reducing ratio based on the control: -22.8
  Serum Cholesterol: 88.8 ± 9.1 mg/dL
  Serum Free fatty acid: 42.1±2.7 μ eq./dl
  Serum Phospholipid: 117.9 ± 6.5 mg/dL
  Serum Triglyceride: 63.6 ± 4.6 mg/dL
  Serum β-Lipoprotein: 589 ± 133 mg/dL
arteriosclerosis
  effect in human beings: satisfactory effect
Blood platelet
  Aggregation Inhibition Ratio: 70.5%
Lipid in liver and aorta; 2.25 mg/kg oral
  Cholesterol in Liver, increasing or reducing ratio based on the control: +12.9
  Cholesterol in Tunica intima of aorta abdominalis, increasing or reducing ratio based on the control: -8.1
  Phospholipid in Liver, increasing or reducing ratio based on the control: +2.6
  Triglyceride in Liver, increasing or reducing ratio based on the control: -23.6
  Cholesterol in Liver: 38.4 ± 6.4 mg/g
  Cholesterol in Tunica intima of aorta abdominalis: 18.2±1.4
  Phospholipid in Liver: 72.0 ± 5.3 mg/g
  Triglyceride in Liver: 16.7 ± 1.3 mg/g
Lipid in liver and aorta; 9 mg/kg or more, oral
  amount of lipids in liver and cholesterol in aorta: remarkably reduced
Lipid in liver and aorta; 9.0 mg/kg oral
  Cholesterol in Liver, increasing or reducing ratio based on the control: -15.0
  Cholesterol in Tunica intima of aorta abdominalis, increasing or reducing ratio based on the control: -29.3
  Phospholipid in Liver, increasing or reducing ratio based on the control: -1.6
  Triglyceride in Liver, increasing or reducing ratio based on the control: -21.1
  Cholesterol in Liver: 28.9 ± 3.6 mg/g
  Cholesterol in Tunica intima of aorta abdominalis: 14.0±0.3
  Phospholipid in Liver: 69.1 ± 9.9 mg/g
  Triglyceride in Liver: 17.2 ± 2.8 mg/g
Lipid in liver and aorta; 22.5 mg/kg oral
  Cholesterol in Liver, increasing or reducing ratio based on the control: -21.8
  Cholesterol in Tunica intima of aorta abdominalis, increasing or reducing ratio based on the control: -32.8
  Phospholipid in Liver, increasing or reducing ratio based on the control: -12.0
  Triglyceride in Liver, increasing or reducing ratio based on the control: -22.1
  Cholesterol in Liver: 26.6 ± 2.2 mg/g
  Cholesterol in Tunica intima of aorta abdominalis: 13.3±0.4
  Phospholipid in Liver: 61.8 ± 4.3 mg/g
  Triglyceride in Liver: 17.0 ± 0.7 mg/g
Cholesterol in serum
  Cholesterol in serum: 76.6 mg/dL
Acute toxicity, rat; ip
  LD50: 3100 mg/kg
Acute toxicity, rat; oral
  LD50: > 10000 mg/kg

## CCCCOc1c(Cl)c(C)c(C=O)c(O)c1C/C=C(C)/C=C/C1(C)C(C)CCC(=O)C1C (stereo not shown) [4-O-n-butylascochlorin]
Blood platelet
  Aggregation Inhibition Ratio: 53.7%
Cholesterol in serum
  Cholesterol in serum: 86.9 mg/dL

## CCCOc1c(Cl)c(C)c(C=O)c(O)c1C/C=C(C)/C=C/C1(C)C(C)CCC(=O)C1C (stereo not shown) [4-O-n-propylascochlorin]
Blood platelet
  Aggregation Inhibition Ratio: 56.5%
Cholesterol in serum
  Cholesterol in serum: 84.3 mg/dL

## CCC(C)Oc1c(Cl)c(C)c(C=O)c(O)c1C/C=C(C)/C=C/C1(C)C(C)CCC(=O)C1C (stereo not shown) [4-O-sec-butylascochlorin]
Blood platelet
  Aggregation Inhibition Ratio: 51.1%
Cholesterol in serum
  Cholesterol in serum: 89.1 mg/dL

## CC(/C=C/C1(C)C(C)CCC(=O)C1C)=C\Cc1c(O)c(C=O)c(C)c(Cl)c1OC(C)(C)C (stereo not shown) [4-O-tert-butylascochlorin]
Blood platelet
  Aggregation Inhibition Ratio: 60.5%
Cholesterol in serum
  Cholesterol in serum: 82.7 mg/dL

## CC(=O)Oc1ccccc1C(=O)O [acetyl salicylic acid, reference compound]
Blood platelet
  Aggregation Inhibition Ratio: 73.1%

## CCOC(=O)C(C)(C)Oc1ccc(Cl)cc1 [ethyl-α-(p-chlorophenoxy) isobutylate, reference compound]
Serum Lipid; 45.0 mg/kg oral
  Serum Cholesterol, increasing or reducing ratio based on the control: +7.9
  Serum Free fatty acid, increasing or reducing ratio based on the control: -10.1
  Serum Phospholipid, increasing or reducing ratio based on the control: -0.7
  Serum Triglyceride, increasing or reducing ratio based on the control: -9.2
  Serum β-Lipoprotein, increasing or reducing ratio based on the control: -3.7
  Serum Cholesterol: 115.3 ± 5.5 mg/dL
  Serum Free fatty acid: 45.2±1.6 μ eq./dl
  Serum Phospholipid: 135.9 ± 13.6 mg/dL
  Serum Triglyceride: 72.1 ± 4.4 mg/dL
  Serum β-Lipoprotein: 738 ± 46 mg/dL
Serum Lipid; oral, groups of Tables IV and V
  lowering of lipids in serum, liver and aorta (such effects): such effects were not observed
Blood platelet
  Aggregation Inhibition Ratio: 0%
Lipid in liver and aorta; 45.0 mg/kg oral
  Cholesterol in Liver, increasing or reducing ratio based on the control: +20.6
  Cholesterol in Tunica intima of aorta abdominalis, increasing or reducing ratio based on the control: -14.7
  Phospholipid in Liver, increasing or reducing ratio based on the control: +13.2
  Triglyceride in Liver, increasing or reducing ratio based on the control: +10.7
  Cholesterol in Liver: 41.0 ± 4.5 mg/g
  Phospholipid in Liver: 79.5 ± 3.1 mg/g
  Triglyceride in Liver: 24.2 ± 2.2 mg/g
Cholesterol in serum
  Cholesterol in serum: 103.8 mg/dL
